Test results as given in patent US20170233345A1, “SUBSTITUTED QUINOLINE-4-CARBOXAMIDES AND USE THEREOF” (BAYER PHARMA AKTIENGESELLSCHAFT, priority 2014, published 2017).

System: recombinant guanylate cyclase reporter cell line
Test: Effect on a recombinant guanylate cyclase reporter cell line
Assay type: cell-based
Conditions: in some cases mean values from individual determinations, read-out: MEC (minimum effective concentration)
Experimental: B-2. Effect on a Recombinant Guanylate Cyclase Reporter Cell Line
The cellular activity of the compounds according to the invention is determined using a recombinant guanylate cyclase reporter cell line, as described in F. Wunder et al., Anal. Biochem. 339, 104-112 (2005).
Representative MEC values (MEC=minimum effective concentration) for the compounds of the invention are shown in the table below (in some cases as mean values from individual determinations): […]

Compound: CCCC[C@H](CO)NC(=O)c1cc(C)nc2c(OCc3c(F)cccc3F)cccc12 [Example 46, ent-8-[(2,6-Difluorobenzyl)oxy]-N-[(2R)-1-hydroxyhexan-2-yl]-2-methylquinoline-4-carboxamide (Enantiomer)]
- minimal effective concentration: 2 µM

Compound: Cc1cc(OCc2c(F)cccc2F)c2nccc(C(=O)N[C@@](C)(CO)c3nnc(C)s3)c2c1 [Example 48, ent-8-[(2,6-Difluorobenzyl)oxy]-N-[(2S)-1-hydroxy-2-(5-methyl-1,3,4-thiadiazol-2-yl)propan-2-yl]-6-methylquinoline-4-carboxamide]
- minimal effective concentration: 3 µM
